Experimental data reported in ChEMBL document CHEMBL4732255, “Evaluation of the antiproliferative activity of 106 marine microbial metabolites against human lung cancer cells and potential antiproliferative mechanism of purpuride G” (Bioorg Med Chem Lett, 2021).
The source made the active and inactive calls. The calls are words filed in the database; no cut-off is given here.

Key:
NCI-H157 [1] = test: Inhibition of glycolysis in human NCI-H157 cells assessed as downregulation of HK2 protein expression at 2 to 5 uM incubated for 24 hrs by western blot analysis; format: functional, cell-based; settings: dose 2-5 µM
NCI-H1703 = test: Antiproliferative activity against human NCI-H1703 cells assessed as reduction in cell viability incubated for 72 hrs by sulforhodamine B assay; format: functional, cell-based; settings: NCI-H1703, 72 h
A549 [2] = test: Antiproliferative activity against human A549 cells assessed as cell viability at 50 uM measured after 72 hrs by sulforhodamine B assay; format: functional; settings: read-out: Activity
PC-9 [3] = test: Inhibition of glycolysis in human PC-9 cells assessed as downregulation of HK2 protein expression at 2 to 5 uM incubated for 24 hrs by western blot analysis; format: functional, cell-based; settings: dose 2-5 µM
NCI-H157 [4] = test: Inhibition of glycolysis in human NCI-H157 cells assessed as reduction in extracellular glucose consumption at 5 uM incubated for 24 hrs; format: functional, cell-based
NCI-H157 [5] = test: Induction of apoptosis in human NCI-H157 cells assessed as induction of PARP cleavage at 2 to 5 uM incubated for 24 hrs by western blot analysis; format: functional, cell-based; settings: dose 2-5 µM
NCI-H157 [6] = test: Cell cycle arrest in human NCI-H157 cells assessed as accumulation at S phase at 5 uM measured after 48 hrs by propidium iodide staining based flow cytometry (reference value: 26.33 to 26.84%); format: functional
NCI-H157 [7] = test: Induction of apoptosis in human NCI-H157 cells assessed as late apoptotic cells at 5 uM measured after 48 hrs by Annexin V-FITC/propidium iodide staining based flow cytometry (reference value: 1.95 to 2.1%); format: functional
PC-9 [8] = test: Inhibition of glycolysis in human PC-9 cells assessed as reduction in extracellular glucose consumption at 5 uM incubated for 24 hrs; format: functional, cell-based
PC-9 [9] = test: Induction of apoptosis in human PC-9 cells assessed as induction of PARP cleavage at 2 to 5 uM incubated for 24 hrs by western blot analysis; format: functional, cell-based; settings: dose 2-5 µM
BEAS-2B = test: Cytotoxicity against human BEAS-2B cells assessed as reduction in cell viability incubated for 72 hrs by sulforhodamine B assay; format: cell-based
NCI-H157 [10] = test: Antiproliferative activity against human NCI-H157 cells assessed as cell viability at 50 uM measured after 72 hrs by sulforhodamine B assay; format: functional; settings: read-out: Activity
PC-9 [11] = test: Cell cycle arrest in human PC-9 cells assessed as accumulation at G0/G1 phase at 5 uM measured after 48 hrs by propidium iodide staining based flow cytometry (reference value: 30.67 to 31.96%); format: functional
NCI-H157 [12] = test: Induction of apoptosis in human NCI-H157 cells assessed as downregulation of Bcl-2 protein expression at 2 to 5 uM incubated for 24 hrs by western blot analysis; format: functional, cell-based; settings: dose 2-5 µM
NCI-H157 [13] = test: Cell cycle arrest in human NCI-H157 cells assessed as accumulation at G2/M phase at 5 uM measured after 48 hrs by propidium iodide staining based flow cytometry (reference value: 16.62 to 16.94%); format: functional
NCI-H157 [14] = test: Induction of apoptosis in human NCI-H157 cells assessed as viable cells at 5 uM measured after 48 hrs by Annexin V-FITC/propidium iodide staining based flow cytometry (reference value: 94.3%); format: functional; settings: read-out: Activity
NCI-H1299 = test: Antiproliferative activity against human NCI-H1299 cells assessed as reduction in cell viability incubated for 72 hrs by sulforhodamine B assay; format: functional, cell-based; settings: NCI-H1299, 72 h
PC-9 [15] = test: Inhibition of glycolysis in human PC-9 cells assessed as reduction in lactate release at 5 uM incubated for 24 hrs; format: functional, cell-based
NCI-H157 [16] = test: Induction of apoptosis in human NCI-H157 cells assessed as upregulation of Bax protein expression at 2 to 5 uM incubated for 24 hrs by western blot analysis; format: functional, cell-based; settings: dose 2-5 µM
U-87 MG = test: Antiproliferative activity against human U-87MG cells assessed as reduction in cell viability incubated for 72 hrs by sulforhodamine B assay; format: functional, cell-based, U-87MG ATCC
PC-9 [17] = test: Induction of apoptosis in human PC-9 cells assessed as upregulation of Bax protein expression at 2 to 5 uM incubated for 24 hrs by western blot analysis; format: functional, cell-based; settings: dose 2-5 µM
NCI-H460 = test: Antiproliferative activity against human NCI-H460 cells assessed as reduction in cell viability incubated for 72 hrs by sulforhodamine B assay; format: functional, cell-based; settings: NCI-H460, 72 h
PC-9 [18] = test: Induction of apoptosis in human PC-9 cells assessed as early apoptotic cells at 5 uM measured after 48 hrs by Annexin V-FITC/propidium iodide staining based flow cytometry (reference value: 2.55 to 2.8%); format: functional
PC-9 [19] = test: Induction of apoptosis in human PC-9 cells assessed as downregulation of Bcl-2 protein expression at 2 to 5 uM incubated for 24 hrs by western blot analysis; format: functional, cell-based; settings: dose 2-5 µM
NCI-H157 [20] = test: Inhibition of glycolysis in human NCI-H157 cells assessed as downregulation of PKM2 protein expression at 2 to 5 uM incubated for 24 hrs by western blot analysis; format: functional, cell-based; settings: dose 2-5 µM
PC-9 [21] = test: Induction of apoptosis in human PC-9 cells assessed as necrotic cells at 5 uM measured after 48 hrs by Annexin V-FITC/propidium iodide staining based flow cytometry (reference value: 0.8%); format: functional
NCI-H157 [22] = test: Inhibition of glycolysis in human NCI-H157 cells assessed as reduction in lactate release at 5 uM incubated for 24 hrs; format: functional, cell-based
PC-9 [23] = test: Induction of apoptosis in human PC-9 cells assessed as viable cells at 5 uM measured after 48 hrs by Annexin V-FITC/propidium iodide staining based flow cytometry (reference value: 90.9%); format: functional; settings: read-out: Activity
PC-9 [24] = test: Inhibition of glycolysis in human PC-9 cells assessed as downregulation of PKM2 protein expression at 2 to 5 uM incubated for 24 hrs by western blot analysis; format: functional, cell-based; settings: dose 2-5 µM
NCI-H157 [25] = test: Induction of apoptosis in human NCI-H157 cells assessed as necrotic cells at 5 uM measured after 48 hrs by Annexin V-FITC/propidium iodide staining based flow cytometry (reference value: 2.5%); format: functional
PC-9 [26] = test: Antiproliferative activity against human PC-9 cells assessed as reduction in cell viability incubated for 72 hrs by sulforhodamine B assay; format: functional, cell-based; settings: PC-9, 72 h
A549 [27] = test: Antiproliferative activity against human A549 cells assessed as reduction in cell viability measured after 72 hrs by sulforhodamine B assay; format: functional, cell-based; settings: A549, 72 h
NCI-H157 [28] = test: Induction of apoptosis in human NCI-H157 cells assessed as early apoptotic cells at 5 uM measured after 48 hrs by Annexin V-FITC/propidium iodide staining based flow cytometry (reference value: 1 to 1.1%); format: functional
NCI-H157 [29] = test: Cell cycle arrest in human NCI-H157 cells assessed as accumulation at G0/G1 phase at 5 uM measured after 48 hrs by propidium iodide staining based flow cytometry (reference value: 56.53 to 56.73%); format: functional
NCI-H157 [30] = test: Antiproliferative activity against human NCI-H157 cells assessed as reduction in cell viability measured after 72 hrs by sulforhodamine B assay; format: functional, cell-based; settings: NCI-H157, 72 h
PC-9 [31] = test: Cell cycle arrest in human PC-9 cells assessed as accumulation at S phase at 5 uM measured after 48 hrs by propidium iodide staining based flow cytometry (reference value: 52.95 to 53.28%); format: functional
PC-9 [32] = test: Induction of apoptosis in human PC-9 cells assessed as late apoptotic cells at 5 uM measured after 48 hrs by Annexin V-FITC/propidium iodide staining based flow cytometry (reference value: 5.5 to 6.9%); format: functional
PC-9 [33] = test: Cell cycle arrest in human PC-9 cells assessed as accumulation at G2/M phase at 5 uM measured after 48 hrs by propidium iodide staining based flow cytometry (reference value: 15.09 to 16.04%); format: functional
U-251 = test: Antiproliferative activity against human U-251 cells assessed as reduction in cell viability incubated for 72 hrs by sulforhodamine B assay; format: functional, cell-based; settings: U-251, 72 h

For `CC1(C)CC[C@H](O)[C@@]2(C)[C@H]1CC=C1C(=O)OC[C@@]12O`, the inhibition (NCI-H157 [1]) was “Active”, the IC50 (NCI-H1703) was 3.6 µM and the viability at 50 µM (A549 [2]) was under 50%. For the same compound, the inhibition (PC-9 [3]) was “Active”, the inhibition (NCI-H157 [4]) was “Active” and the Activity (NCI-H157 [5]) was “Active”. The Activity (NCI-H157 [6]) was 36.68%, the Activity (NCI-H157 [7]) was 18.15% and the inhibition (PC-9 [8]) was “Active”. For the same compound, the Activity (PC-9 [9]) was “Active”, the IC50 (BEAS-2B) was 6.3 µM and the viability at 50 µM (NCI-H157 [10]) was under 50%. The Activity (PC-9 [11]) was 55.77%, the Activity (NCI-H157 [12]) was “Active” and the Activity (NCI-H157 [13]) was 15.21%. For the same compound, the viability at 5 µM (NCI-H157 [14]) was 70.7%, the IC50 (NCI-H1299) was 2.7 µM and the inhibition (PC-9 [15]) was “Active”. For the same compound, the Activity (NCI-H157 [16]) was “Active”, the IC50 (U-87 MG) was 10.4 µM and the Activity (PC-9 [17]) was “Active”. The IC50 (NCI-H460) was 2.3 µM, the Activity (PC-9 [18]) was 5.7% and the Activity (PC-9 [19]) was “Active”. The inhibition (NCI-H157 [20]) was “Active”, the Activity (PC-9 [21]) was 23.4% and the inhibition (NCI-H157 [22]) was “Active”. The viability at 5 µM (PC-9 [23]) was 38.1%, the inhibition (PC-9 [24]) was “Active” and the Activity (NCI-H157 [25]) was 4.9%. It also gave an IC50 (PC-9 [26]) of 2.1 µM, an IC50 (A549 [27]) of 3.3 µM and an Activity (NCI-H157 [28]) of 6.1%. The Activity (NCI-H157 [29]) was 47.83%, the IC50 (NCI-H157 [30]) was 2.9 µM and the Activity (PC-9 [31]) was 22.97%. It also gave an Activity (PC-9 [32]) of 32.1%, an Activity (PC-9 [33]) of 20.29% and an IC50 (U-251) of 4.5 µM.
